Laboratory results taken from the NIST ThermoML archive (doi:10.1016/j.jct.2018.08.035).
Numbers after ± are expanded uncertainties.

Test: xn = mol fraction of the nth substance listed
Conditions: 100 kPa, Liquid, Vibrating tube method

CCC(O)CC [3-pentanol] + C[N+](=O)[O-]
Conditions | mass density [kg/m3]
291.36 K, x1 = 0.338 | 976.695 ± 2.1
291.36 K, x1 = 0.363 | 976.137 ± 2.1
291.36 K, x1 = 0.546 | 910.024 ± 2.5
291.36 K, x1 = 0.587 | 897.278 ± 1.9
291.36 K, x1 = 0.615 | 890.441 ± 1.9
291.45 K, x1 = 0.246 | 1006.19 ± 2.2
291.45 K, x1 = 0.275 | 994.165 ± 2.2
291.45 K, x1 = 0.338 | 972.479 ± 2.2
291.45 K, x1 = 0.382 | 968.647 ± 2.1
291.45 K, x1 = 0.407 | 965.925 ± 2.1
291.45 K, x1 = 0.414 | 965.499 ± 2.1
291.45 K, x1 = 0.486 | 938.691 ± 2.2
291.45 K, x1 = 0.488 | 935.781 ± 2.2
291.45 K, x1 = 0.546 | 907.652 ± 1.9
291.45 K, x1 = 0.573 | 900.812 ± 1.9
291.45 K, x1 = 0.587 | 897.17 ± 1.9
291.45 K, x1 = 0.615 | 890.332 ± 1.9
291.46 K, x1 = 0.266 | 997.671 ± 2.2
291.46 K, x1 = 0.3 | 984.765 ± 2.1
291.46 K, x1 = 0.325 | 975.497 ± 2.1
291.46 K, x1 = 0.363 | 971.707 ± 2.2
291.55 K, x1 = 0.246 | 1006.07 ± 2.2
291.55 K, x1 = 0.275 | 994.042 ± 2.2
291.55 K, x1 = 0.382 | 965.717 ± 2.1
291.55 K, x1 = 0.407 | 961.145 ± 2.1
291.55 K, x1 = 0.414 | 961.374 ± 2.1
291.55 K, x1 = 0.486 | 933.844 ± 2.3
291.55 K, x1 = 0.488 | 932.33 ± 2.2
291.55 K, x1 = 0.573 | 900.7 ± 1.9
291.56 K, x1 = 0.266 | 997.549 ± 2.2
291.56 K, x1 = 0.3 | 984.639 ± 2.1
291.56 K, x1 = 0.325 | 975.358 ± 2.1
291.56 K, x1 = 0.338 | 970.561 ± 2.1
291.56 K, x1 = 0.363 | 967.75 ± 2.1
291.56 K, x1 = 0.546 | 907.531 ± 1.9
291.56 K, x1 = 0.587 | 897.059 ± 1.9
291.56 K, x1 = 0.615 | 890.227 ± 1.9
291.65 K, x1 = 0.246 | 1005.95 ± 2.2
291.65 K, x1 = 0.266 | 997.425 ± 2.2
291.65 K, x1 = 0.275 | 993.918 ± 2.2
291.65 K, x1 = 0.325 | 975.23 ± 2.1
291.65 K, x1 = 0.338 | 970.427 ± 2.1
291.65 K, x1 = 0.363 | 961.876 ± 2.1
291.65 K, x1 = 0.382 | 955.241 ± 2.1
291.65 K, x1 = 0.407 | 957.953 ± 2.1
291.65 K, x1 = 0.414 | 956.971 ± 2.2
291.65 K, x1 = 0.486 | 923.683 ± 2
291.65 K, x1 = 0.488 | 922.941 ± 2
291.65 K, x1 = 0.546 | 907.417 ± 1.9
291.65 K, x1 = 0.573 | 900.591 ± 1.9
291.65 K, x1 = 0.615 | 890.121 ± 1.9
291.66 K, x1 = 0.3 | 984.514 ± 2.1
291.66 K, x1 = 0.587 | 896.95 ± 1.9
291.75 K, x1 = 0.246 | 1005.83 ± 2.2
291.75 K, x1 = 0.266 | 997.302 ± 2.2
291.75 K, x1 = 0.275 | 993.795 ± 2.2
291.75 K, x1 = 0.3 | 984.391 ± 2.1
291.75 K, x1 = 0.325 | 975.108 ± 2.1
291.75 K, x1 = 0.338 | 970.303 ± 2.1
291.75 K, x1 = 0.363 | 961.743 ± 2.1
291.75 K, x1 = 0.382 | 955.25 ± 2.1
291.75 K, x1 = 0.414 | 944.629 ± 2.1
291.75 K, x1 = 0.486 | 923.534 ± 2
291.75 K, x1 = 0.488 | 922.803 ± 2
291.75 K, x1 = 0.546 | 907.305 ± 1.9
291.75 K, x1 = 0.573 | 900.482 ± 1.9
291.75 K, x1 = 0.615 | 890.018 ± 1.9
291.76 K, x1 = 0.407 | 947.126 ± 2
291.76 K, x1 = 0.587 | 896.844 ± 1.9
291.85 K, x1 = 0.246 | 1005.7 ± 2.2
291.85 K, x1 = 0.275 | 993.671 ± 2.2
291.85 K, x1 = 0.3 | 984.268 ± 2.1
291.85 K, x1 = 0.338 | 970.173 ± 2.1
291.85 K, x1 = 0.382 | 955.119 ± 2.1
291.85 K, x1 = 0.414 | 944.718 ± 2
291.85 K, x1 = 0.486 | 923.411 ± 2
291.85 K, x1 = 0.573 | 900.371 ± 1.9
291.85 K, x1 = 0.615 | 889.909 ± 1.9
291.86 K, x1 = 0.266 | 997.179 ± 2.2
